{"source": "patent US5135936A", "about": "“Isomers of 1-azabicyclo[2.2.2]oct-3-yl methyl 1,4-dihydro-2,6-dimethyl-4-(3-nitrophenyl)-3,5-pyridinediacarboxylic and their use as calcium antagonists” (Marion Merrell Dow Inc., priority 1991, dated 1992)", "key": {"[1]": {"conditions": "in words; cited from earlier work"}, "Guinea Pig Ileum": {"biological_target": "T1, Guinea Pig Ileum (Cavia porcellus, UniProt O35505)", "T1 construct": "The longitudinal smooth muscle is carefully separated from the underlying circular muscle layer; from tissue; host or cells: guinea pig ileum (terminal 10 cm discarded), isolated longitudinal smooth muscle", "T1 sequence (O35505 whole entry)": "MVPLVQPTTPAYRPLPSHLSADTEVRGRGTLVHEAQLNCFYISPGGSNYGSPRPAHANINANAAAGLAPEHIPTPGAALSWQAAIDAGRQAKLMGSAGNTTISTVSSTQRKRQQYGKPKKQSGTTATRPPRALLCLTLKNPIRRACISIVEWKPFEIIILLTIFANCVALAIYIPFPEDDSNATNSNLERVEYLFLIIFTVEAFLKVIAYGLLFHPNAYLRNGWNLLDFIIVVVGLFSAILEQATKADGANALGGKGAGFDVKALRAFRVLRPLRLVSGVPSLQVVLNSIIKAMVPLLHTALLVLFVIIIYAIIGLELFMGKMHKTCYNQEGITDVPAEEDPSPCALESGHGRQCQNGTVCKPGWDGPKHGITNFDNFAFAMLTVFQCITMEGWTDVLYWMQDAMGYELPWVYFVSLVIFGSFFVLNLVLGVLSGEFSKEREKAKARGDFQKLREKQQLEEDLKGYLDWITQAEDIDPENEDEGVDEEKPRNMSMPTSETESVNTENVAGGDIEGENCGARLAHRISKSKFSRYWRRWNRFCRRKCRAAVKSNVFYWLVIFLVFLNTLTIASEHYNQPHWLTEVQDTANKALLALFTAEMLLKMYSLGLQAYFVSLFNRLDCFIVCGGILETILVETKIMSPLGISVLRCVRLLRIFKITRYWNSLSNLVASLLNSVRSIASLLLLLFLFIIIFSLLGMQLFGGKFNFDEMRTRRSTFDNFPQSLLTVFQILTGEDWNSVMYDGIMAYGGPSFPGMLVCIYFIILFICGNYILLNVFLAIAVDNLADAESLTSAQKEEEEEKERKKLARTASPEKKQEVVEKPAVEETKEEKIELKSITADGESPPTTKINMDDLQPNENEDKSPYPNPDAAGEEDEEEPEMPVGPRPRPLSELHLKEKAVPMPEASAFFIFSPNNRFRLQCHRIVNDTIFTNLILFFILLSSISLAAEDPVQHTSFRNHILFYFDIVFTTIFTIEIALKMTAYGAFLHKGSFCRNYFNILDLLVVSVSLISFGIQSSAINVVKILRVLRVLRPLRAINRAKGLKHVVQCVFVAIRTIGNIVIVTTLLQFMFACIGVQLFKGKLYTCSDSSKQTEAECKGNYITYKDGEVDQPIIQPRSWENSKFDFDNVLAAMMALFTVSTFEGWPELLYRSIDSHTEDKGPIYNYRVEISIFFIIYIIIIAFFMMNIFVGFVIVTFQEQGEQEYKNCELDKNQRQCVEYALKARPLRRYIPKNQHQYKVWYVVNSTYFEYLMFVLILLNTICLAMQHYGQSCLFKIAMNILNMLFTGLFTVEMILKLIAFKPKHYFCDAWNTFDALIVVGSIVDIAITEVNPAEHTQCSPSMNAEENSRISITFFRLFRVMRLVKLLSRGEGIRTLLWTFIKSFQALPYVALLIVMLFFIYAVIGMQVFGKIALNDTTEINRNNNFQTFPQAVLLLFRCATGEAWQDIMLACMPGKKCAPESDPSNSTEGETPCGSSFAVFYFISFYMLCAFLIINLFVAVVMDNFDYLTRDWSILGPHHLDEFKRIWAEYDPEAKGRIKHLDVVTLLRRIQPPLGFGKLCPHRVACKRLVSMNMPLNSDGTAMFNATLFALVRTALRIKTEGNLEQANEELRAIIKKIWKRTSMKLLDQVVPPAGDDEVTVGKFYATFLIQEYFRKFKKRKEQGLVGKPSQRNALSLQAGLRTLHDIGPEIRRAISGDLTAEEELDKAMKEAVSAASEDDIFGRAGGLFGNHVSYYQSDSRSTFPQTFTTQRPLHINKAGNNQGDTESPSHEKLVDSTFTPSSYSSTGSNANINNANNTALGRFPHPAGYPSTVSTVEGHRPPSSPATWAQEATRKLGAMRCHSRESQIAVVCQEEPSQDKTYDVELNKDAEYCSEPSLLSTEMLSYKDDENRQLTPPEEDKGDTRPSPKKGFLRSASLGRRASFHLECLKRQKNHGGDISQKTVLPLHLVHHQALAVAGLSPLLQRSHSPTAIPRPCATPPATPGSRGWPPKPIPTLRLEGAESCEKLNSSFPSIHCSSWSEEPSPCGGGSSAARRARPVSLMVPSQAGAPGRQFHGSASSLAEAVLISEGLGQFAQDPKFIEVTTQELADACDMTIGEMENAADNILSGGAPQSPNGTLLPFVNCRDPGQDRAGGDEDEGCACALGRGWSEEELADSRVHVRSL", "test": "Calcium Channel Antagonist Activity in Guinea Pig Isolated Ileal Smooth Muscle (inhibition of Ca++ evoked contractions)", "conditions": "concentration producing a two-fold rightward shift in the control Ca++ curve; KCl-depolarized (80 mM) longitudinal smooth muscle", "text": "Calcium Channel Antagonist Activity in Guinea Pig Isolated Ileal Smooth Muscle\nMale albino guinea pigs are sacrificed by stunning and exsanguination. The abdominal cavity is opened and the small intestine is removed, with about 10 cm of the terminal ileum being discarded. The tissue is placed in a dish containing Tyrode's solution of the following composition (in mM): NaCl 136.90; KCl 2.68; NaHCO3 11.90; NaH2 PO4 0.36; MgCl2 0.98; CaCl2 1.77; dextrose 5.55 and cut into three to four segments. A glass rod (6 mm diameter) is carefully inserted into the lumen of each segment and excess connective tissue or fat is removed. The longitudinal smooth muscle is carefully separated from the underlying circular muscle layer by gently stroking a moist cotton swab on a tangent to shallow, longitudinal incisions made parallel to the mesenteric attachment. Using gentle traction, and taking care to keep the segment moist at all times, the preparation is stripped from the remaining length of the ileal segment (Paton, W. D. M.; Zar, M. A.; J. Physiol. 1968, 194, 13.)\nEach preparation is suspended in a 10 mL jacketed glass tissue bath containing Tyrode's solution maintained at 37° C. and gassed with 5% CO2 in O2. The preparation is attached by silk thread to a force-displacement transducer. […] The initial resting tension is adjusted to 0.5 g and the preparation equilibrated for 55 min prior to experimentation. At the end of this period, the bathing solution is replaced with Ca^++ free Tyrode's solution. This solution is prepared by omitting CaCl2. The preparation is washed four times in Ca^++ free Tyrode's solution to remove any Ca^++ remaining in the bath, and allowed to equilibrate for a further 20 min.\nExperimental Protocol. Concentration-response curves to CaCl2 are obtained using the following procedure. Preparations are exposed to a depolarizing concentration of KCl (80 mM) for 6 min. At the end of this period CaCl2 is added to the bath cumulatively in the concentration range 0.2-8.0 mM. Successive additions of each Ca^++ concentration are carried out only when the previous response has reached a plateau. When the maximum response has been attained the bath is again washed (five times) with Ca^++ free buffer, and the preparation re-equilibrated for approximately 15 min. A second Ca^++ concentration-response curve is then obtained in the same manner. This second curve serves as control for that tissue.\nFurther curves are obtained in the presence of increasing concentrations of the test drugs. Where appropriate, the test drug is added to the bath immediately following addition of KCl, and 6 minutes later the concentration-response curve to Ca^++ is obtained. Each test preparation is exposed to three different concentrations of a test drug. […]"}, "[2]": {"system": "spontaneously hypertensive rats", "conditions": "rank among the enantiomers, in words; cited from earlier work"}, "[3]": {"system": "[3H]-nitrendipine binding", "conditions": "rank among the enantiomers, in words; cited from earlier work"}, "[4]": {"biological_target": "[3H]-Nitrendipine Binding in Rat Cortical Membranes", "test": "Inhibition of [3H]-Nitrendipine Binding in Rat Cortical Membranes", "conditions": "rat cortex, room temperature, 90 min", "procedure": "[3H]-Nitrendioine Bindino in Rat Cortex\nAnimals were decapitated and the cortical tissue was dissected, weighed and polytroned in about 20 volumes (w/v) of ice cold buffer ([…] TRIS HCl, pH 7.5). The tissue was then washed 3 times via centrifugation (20,000 rpm for 10 min at 4° C.) with subsequent resuspension in fresh buffer. The final pellet was resuspended prior to the assay at 22.5 mg/mL […]. Incubations were performed at room temperature for 90 min in each assay. These incubations were done in triplicate in a final assay volume of 2.0 mL. Non-specific binding was determined by the addition of 1 uM nifedipine for the [3H]-nitrendipine assay each to triplicate set of tubes. Reactions in each assay were terminated by filtration using a Brandel Cell Harvester followed by washing with ice cold buffer.\nFor preliminary evaluations in each assay, all compounds were examined at four log concentrations (1 nM-1 uM). full displacement curves were generated on all compounds showing inhibition of specific binding of 50% or greater at a 1 uM drug concentration. Standard reference compounds were included and evaluated in each assay. Analysis of data was done using both the EBDA Scafit program and HP-11C linear regression."}, "[3H]-yohimbine binding": {"system": "[3H]-yohimbine binding", "conditions": "rank among the enantiomers, in words; cited from earlier work"}}, "note": "Counter-ions that a name gives are not always drawn.", "data": [{"smiles": "COC(=O)C1=C(C)NC(C)=C(C(=O)OC(C)C)[C@@H]1c1cccc2nonc12", "note": "[(R)-enantiomer of PN 200-110, isopropyl methyl 4-(2,1,3-benzoxadiazol-4-yl) -1,4-dihydro-2,6-dimethyl-3,5-pyridinedicarboxylate]", "values": [{"measurement": "blood flow to the heart and brain", "setting": "[1]", "value": "increased"}, {"measurement": "cardiac output", "setting": "[1]", "value": "increased"}, {"measurement": "effect on blood pressure", "setting": "[1]", "value": "almost no effect"}, {"measurement": "effect on heart rate", "setting": "[1]", "value": "almost no effect"}, {"measurement": "potency in the subendocardium of the left ventricle", "setting": "[1]", "value": "surprisingly potent"}]}, {"smiles": "COC(=O)C1=C(C)NC(C)=C(C(=O)O[C@@H]2CN3CCC2CC3)[C@H]1c1cccc([N+](=O)[O-])c1", "note": "[(S,S)-I, (S,S)-1-Azabicyclo[2.2.2]oct-3-yl methyl 1,4-dihydro-2,6-dimethyl-4-(3-nitrophenyl)-3,5-pyridinedicarboxylate]", "values": [{"measurement": "Kb", "setting": "Guinea Pig Ileum", "value": 1620, "unit": "nM"}]}, {"smiles": "COC(=O)C1=C(C)NC(C)=C(C(=O)O[C@H]2CCCN(Cc3ccccc3)C2)[C@H]1c1cccc([N+](=O)[O-])c1", "note": "[(S,S)-enantiomer of 1-benzyl-3-piperidinyl ester]", "values": [{"measurement": "Ca++ channel blocking activity as determined by lowering of blood pressure in spontaneously hypertensive rats", "setting": "[2]", "value": "greatest"}]}, {"smiles": "COC(=O)C1=C(C)NC(C)=C(C(=O)O[C@H]2CCN(Cc3ccccc3)C2)[C@H]1c1cccc([N+](=O)[O-])c1", "note": "[(S,S)-enantiomer of 1-benzyl-3-pyrrolidinyl ester]", "values": [{"measurement": "Ca++ channel blocking activity as determined by inhibition of [3H]-nitrendipine binding", "setting": "[3]", "value": "greatest"}]}, {"smiles": "COC(=O)C1=C(C)NC(C)=C(C(=O)OCCN(C)C[C@@H]2COc3ccccc3O2)[C@@H]1c1cccc([N+](=O)[O-])c1", "note": "[2-[N-methyl-N-[(2,3-dihydro-1,4-benzodioxin-2-yl)methyl]amino]ethyl methyl 2,6-dimethyl-4-(3-nitrophenyl)-1,4-dihydropyridine-3,5-dicarboxylate]", "values": [{"measurement": "inhibition of [3H]-nitrendipine binding", "setting": "[3]", "value": "most potent"}]}, {"smiles": "COC(=O)C1=C(C)NC(C)=C(C(=O)O[C@H]2CN3CCC2CC3)[C@H]1c1cccc([N+](=O)[O-])c1", "note": "[(R,S)-I, (R,S)-1-Azabicyclo[2.2.2]oct-3-yl methyl 1,4-dihydro-2,6-dimethyl-4-(3-nitrophenyl)3,5-pyridinedicarboxylate]", "values": [{"measurement": "Ki", "setting": "[4]", "value": 56, "unit": "nM"}, {"measurement": "Kb", "setting": "Guinea Pig Ileum", "value": 174, "unit": "nM"}]}, {"smiles": "COC(=O)C1=C(C)NC(C)=C(C(=O)O[C@H]2CN3CCC2CC3)[C@@H]1c1cccc([N+](=O)[O-])c1", "note": "[(R,R)-I, (R,R)-1-Azabicyclo[2.2.2]oct-3-yl methyl 1,4-dihydro-2,6-dimethyl-4-(3-nitrophenyl)-3,5-pyridinedicarboxylate]", "values": [{"measurement": "Ki", "setting": "[4]", "value": 11, "unit": "nM"}, {"measurement": "Kb", "setting": "Guinea Pig Ileum", "value": 34, "unit": "nM"}]}, {"smiles": "COC(=O)C1=C(C)NC(C)=C(C(=O)OCCN(C)C[C@H]2COc3ccccc3O2)[C@H]1c1cccc([N+](=O)[O-])c1", "note": "[2-[N-methyl-N-[(2,3-dihydro-1,4-benzodioxin-2-yl)methyl]amino]ethyl methyl 2,6-dimethyl-4-(3-nitrophenyl)-1,4-dihydropyridine-3,5-dicarboxylate]", "values": [{"measurement": "inhibition of [3H]-yohimbine binding", "setting": "[3H]-yohimbine binding", "value": "most potent"}]}, {"smiles": "COC(=O)C1=C(C)NC(C)=C(C(=O)O[C@H]2CN3CCC2CC3)[C@H]1c1cccc([N+](=O)[O-])c1", "note": "[(S,R)-I, (S,R)-1-azabicyclo[2.2.2]oct-3-yl methyl 1,4-dihydro-2,6-dimethyl-4-(3-nitrophenyl)-3,5pyridinedicarboxylate, hydrochloride]", "values": [{"measurement": "Kb", "setting": "Guinea Pig Ileum", "value": 3160, "unit": "nM"}]}, {"smiles": "COC(=O)C1=C(C)NC(C)=C(C(=O)OC(C)C)[C@H]1c1cccc2nonc12", "note": "[(S)-enantiomer of PN 200-110, isopropyl methyl 4-(2,1,3-benzoxadiazol-4-yl) -1,4-dihydro-2,6-dimethyl-3,5-pyridinedicarboxylate]", "values": [{"measurement": "blood flow to the heart and brain", "setting": "[1]", "value": "increased"}, {"measurement": "cardiac output", "setting": "[1]", "value": "increased"}, {"measurement": "effect on blood pressure", "setting": "[1]", "value": "lowered"}, {"measurement": "effect on heart rate", "setting": "[1]", "value": "lowered"}]}]}
